According to US11168153B2, “Cyclodextrin-based transporter of nucleoside triphosphate transporter across the cell membrane, its preparation and use” (USTAV ORGANICKE CHEMIE A BIOCHEMIE AV CR, V.V.I., priority 2016, dated 2021):

System: HIV
Assay: Testing virostatic activity of adefovir diphosphate 8 in TZM-bl cell culture infected with HIV
Type: cell-based, Human immunodeficiency virus
Source text: The subject of testing was the compound of structure formula 8 (adefovir diphosphate) which is a known (Mulato & Cherrington, 1997) active metabolite—the reverse transcriptase inhibitor—in inhibiting the replication of viral DNA of HIV. In determining activity of […], compound 7 (tenofovir), which is a clinically approved drug used for the treatment of HIV, was used as a standard. […] Then the solution of the complex was removed and the infected cells were overlaid with medium with serum and incubated at 37° C. Parallel control experiments were performed (without infection; infection without active substance; 10 μmol·l^−1 tenofovir 7 throughout incubation; compound 8 without a carrier).

## Nc1ncnc2c1ncn2CCOCP(=O)(O)OP(=O)(O)OP(=O)(O)O [Compound 8, adefovir diphosphate]
10 μmol·l−1 complex of compound 8 and transporter 6c in buffer A for 10 minutes, three days of incubation, standard 10 μmol·l−1 tenofovir 7 throughout incubation, FIG. 7
  Virostatic activity compared with tenofovir 7 standard: identical with the control experiments where a solution of compound 7 was present in the medium throughout the incubation
Compound 8 applied using the 6c carrier for 10 min vs compound 7 present throughout incubation
  Activity relative to drug 7, concluded from the shorter time of application: more active than the clinically used drug 7
